From patent US10273263B2, “Pro-drug forming compounds” (priority 2013, dated 2019)
Read-outs that look alike come from different tables or passages of the source.

What was measured:
[1] = oral biological activity: % uterine weight increase compared to vehicle; assay type: in vivo, rat; details: for change in vivo at 0.01 mg / change in vivo at 0.03 mg: Rattus norvegicus, oral; for change in vivo at 0.01 mg: 10.0 μg; for change in vivo at 0.03 mg: 30.0 μg
Procedure: Exemplary compounds were tested for: oral biological activity (Table 1); binding to human carbonic anhydrase II (hCA 2) (Table 2); and, for some compounds enzymatic saponification (Table 3).

[2] = target: human carbonic anhydrase II (hCA 2) (Homo sapiens, UniProt P00918); assay: Human Carbonic Anhydrase II inhibition; assay type: biochemical

| Compound | change in vivo at 0.01 mg [1] [%] | IC50 ([2]; read-out: hCAII (IC50 nM)) [nM] | change in vivo at 0.03 mg [1] [%] | IC50 [2] [nM] | oral activity ([1]; oral dose, comparison in words) |
| --- | --- | --- | --- | --- | --- |
| C[C@]12CCC3c4ccc(O)cc4CCC3C1CC[C@@H]2OC(=O)[C@@H]1CCCN1c1ccc(S(N)(=O)=O)cc1 (stereo partly drawn) [Compound 22A, [(13S,17S)-3-hydroxy-13-methyl-6,7,8,9,11,12,14,15,16,17-decahydrocyclopenta[a]phenanthren-17-yl] 1-(4-sulfamoylphenyl)pyrrolidine-2-carboxylate] | 91.6 | 198 |  |  |  |
| C[C@]12CCC3c4ccc(O)cc4CCC3C1CC[C@@H]2OC(=O)[C@@H]1CCCN1C(=O)c1cccc(S(N)(=O)=O)c1 (stereo partly drawn) [Compound 7A, (2S)-((13S,17S)-3-hydroxy-13-methyl-7,8,9,11,12,13,14,15,16,17-decahydro-6H-cyclopenta[a]-phenanthren-17-yl) 1-(3-sulfamoylbenzoyl)pyrrolidine-2-carboxylate] | 108 | 300 |  |  |  |
| C[C@]12CCC3c4ccc(O)cc4CCC3C1CC[C@@H]2OC(=O)/C=C/C(=O)NCc1ccc(S(N)(=O)=O)cc1 (some centres unmarked) [Compound 4A] |  | 450 | 164 |  |  |
| C[C@]12CCC3c4ccc(O)cc4CCC3C1CC[C@@H]2OC(=O)COc1ccc(S(N)(=O)=O)cc1 (stereo partly drawn) [Compound 15A, (13S,17S)-3-hydroxy-13-methyl-7,8,9,11,12,13,14,15,16,17-decahydro-6H-cyclopenta[a]phenanthren-17-yl 2-(4-sulfamoylphenoxy)acetate] |  | 105 | 152 |  |  |
| C[C@]12CCC3c4ccc(O)cc4CCC3C1CC[C@@H]2OC(=O)COC(=O)c1cccc(S(N)(=O)=O)c1 (stereo partly drawn) [Compound 2A, 2-((13S,17S)-3-hydroxy-13-methyl-7,8,9,11,12,13,14,15,16,17-decahydro-6H-cyclopenta[a]phenanthren-17-yloxy)-2-oxoethyl 3-sulfamoylbenzoate] |  | 3500 |  |  |  |
| C[C@]12CCC3c4ccc(O)cc4CCC3C1CC[C@@H]2OC(=O)CNC(=O)c1cccc(S(N)(=O)=O)c1 (stereo partly drawn) [Compound 5A, (13S,17S)-3-hydroxy-13-methyl-7,8,9,11,12,13,14,15,16,17-decahydro-6H-cyclopenta[a]phenanthren-17-yl 2-(3-sulfamoylbenzamido)-acetate] |  | 42 | 171 |  |  |
| C[C@]12CCC3c4ccc(O)cc4CCC3C1CC[C@@H]2OC(=O)CN(Cc1cccc(S(N)(=O)=O)c1)Cc1cccc(S(N)(=O)=O)c1 (stereo partly drawn) [Compound 13A, (13S,17S)-3-hydroxy-13-methyl-7,8,9,11,12,13,14,15,16,17-decahydro-6H-cyclopenta[a]phenanthren-17-yl 2-(bis(3-sulfamoylbenzyl)amino)acetate] |  | 500 | 136 |  |  |
| C[C@]12CCC3c4ccc(O)cc4CCC3C1CC[C@@H]2OC(=O)[C@@H]1CCCN1Cc1ccc(S(N)(=O)=O)cc1 (stereo partly drawn) [Compound 23A, [(13S,17S)-3-hydroxy-13-methyl-6,7,8,9,11,12,14,15,16,17-decahydrocyclopenta[a]phenanthren-17-yl] 1-[(4-sulfamoylphenyl)methyl]pyrrolidine-2-carboxylate] | 272 | 129 |  |  |  |
| C[C@]12CCC3c4ccc(O)cc4CCC3C1CC[C@@H]2OC(=O)CNC(=O)c1ccc(S(N)(=O)=O)cc1 (stereo partly drawn) [Compound 6A, (13S,17S)-3-hydroxy-13-methyl-7,8,9,11,12,13,14,15,16,17-decahydro-6H-cyclopenta[a]phenanthren-17-yl 2-(4-sulfamoylbenzamido)acetate] | 152 | 65 |  |  |  |
| C[C@H](NC(=O)c1cccc(S(N)(=O)=O)c1)C(=O)O[C@H]1CCC2C3CCc4cc(O)ccc4C3CC[C@@]21C (stereo partly drawn) [Compound 11A, (2S)-((13S,17S)-3-hydroxy-13-methyl-7,8,9,11,12,13,14,15,16,17-decahydro-6H-cyclopenta[a]-phenanthren-17-yl) 2-(3-sulfamoylbenzamido)propanoate] | 170 | 310 |  |  |  |
| C#C[C@]1(O)CC[C@H]2[C@@H]3CCc4cc(O)ccc4[C@H]3CC[C@@]21C [EE, ethinyl estradiol, reference compound] | 154 |  |  |  |  |
| C[C@@H](C(=O)O[C@H]1CCC2C3CCc4cc(O)ccc4C3CC[C@@]21C)N(C)C(=O)c1ccc(S(N)(=O)=O)cc1 (stereo partly drawn) [Compound 18A, [(13S,17S)-3-hydroxy-13-methyl-6,7,8,9,11,12,14,15,16,17-decahydrocyclopenta[a]phenanthren-17-yl](2S)-2-[methyl-(4-sulfamoylbenzoyl)amino]propanoate] | 209 |  |  | 203 |  |
| C[C@]12CCC3c4ccc(O)cc4CCC3C1CC[C@@H]2OC(=O)c1cccc(S(N)(=O)=O)c1 (stereo partly drawn) [Compound 1A, (13S, 17S)-3-hydroxy-13-methyl-7,8,9,11,12,13,14,15,16,17-decahydro-6H-cyclopenta[a]phenanthren-17-yl 3-sulfamoylbenzoate, reference compound] |  | 258 | 212 |  |  |
| C[C@]12CCC3c4ccc(O)cc4CCC3C1CC[C@@H]2OC(=O)C(F)(F)S(N)(=O)=O (stereo partly drawn) [Compound 9A, (13S,17S)-3-hydroxy-13-methyl-7,8,9,11,12,13,14,15,16,17-decahydro-6H-cyclopenta[a]phenanthren-17-yl 2,2-difluoro-2-sulfamoylacetate] | 218 | 85 |  |  |  |
| C[C@]12CCC3c4ccc(O)cc4CCC3C1CC[C@@H]2OC(=O)[C@H](Cc1ccccc1)NC(=O)c1ccc(S(N)(=O)=O)cc1 (stereo partly drawn) [Compound 21A, [(13S,17S)-3-hydroxy-13-methyl-6,7,8,9,11,12,14,15,16,17-decahydrocyclopenta[a]phenanthren-17-yl] (2S)-3-phenyl-2-[(4-sulfamoylbenzoyl)amino]propanoate] | 117 | 100 |  |  |  |
| C[C@]12CCC3c4ccc(O)cc4CCC3C1CC[C@@H]2OC(=O)CNCc1cccc(S(N)(=O)=O)c1 (stereo partly drawn) [Compound 14A, (13S,17S)-3-hydroxy-13-methyl-7,8,9,11,12,13,14,15,16,17-decahydro-6H-cyclopenta[a]phenanthren-17-yl 2-(3-sulfamoylbenzylamino)acetate] |  | 450 | 187 |  |  |
| C[C@]12CCC3c4ccc(O)cc4CCC3C1CC[C@@H]2OC(=O)C1(S(N)(=O)=O)CC1 (stereo partly drawn) [Compound 16A, (13S,17S)-3-hydroxy-13-methyl-7,8,9,11,12,13,14,15,16,17-decahydro-6H-cyclopenta[a]phenanthren-17-yl 1-sulfamoylcyclopropanecarboxylate] |  | > 10000 | 314 |  | comparable high oral activity |
| C[C@]12CCC3c4ccc(O)cc4CCC3C1CC[C@@H]2OC(=O)COCc1ccc(S(N)(=O)=O)cc1 (stereo partly drawn) [Compound 17A, (13S,17S)-3-hydroxy-13-methyl-7,8,9,11,12,13,14,15,16,17-decahydro-6H-cyclopenta[a]phenanthren-17-yl 2-(4-sulfamoylbenzyloxy)acetate] |  | 125 | 133 |  |  |
| C[C@]12CC[C@@H]3c4ccc(O)cc4CC[C@H]3[C@@H]1CC[C@@H]2O [Compound E2, estradiol, reference compound] | 118 |  |  |  |  |
| C[C@]12CCC3c4ccc(O)cc4CCC3C1CC[C@@H]2OC(=O)CS(N)(=O)=O (stereo partly drawn) [Compound 10A, (13S,17S)-3-hydroxy-13-methyl-7,8,9,11,12,13,14,15,16,17-decahydro-6H-cyclopenta[a]phenanthren-17-yl 2-sulfamoylacetate] | 177 | 510 |  |  |  |
